Data set [1] has as its system three melanoma cell lines and four human prostate cancer cell lines. The experiment in a line: SRB cytotoxicity, melanoma and prostate cancer cell lines (ranges and averages over the panel). The class given is cell-based. The following applies: for antiproliferative activity (in words): Tables 1-3.
The next data set concerns PC-3 cells. To be noted: 96 h. The source says:
(§1) Cells were stained with SRB solution.
Cells were stained with sulphorhodamine B (SRB) solution.

For another data set, the system named is LNCaP cells. The experiment in a line: SRB cytotoxicity assay, LNCaP. The class given is cell-based, human. The following applies: read-out: IC50 ± SEM LNCaP.
From the text: as §1
On the technique in general: Sulforhodamine B stains cellular protein and so reports cell mass.

Another data set deals with DU 145 cells. The experiment in a line: SRB cytotoxicity assay, DU 145. The format is cell-based, human. The following applies: Table 12; 96 h; read-out: IC50 ± SEM Du 145.
From the text: as §1

For a further data set, the system named is PPC-1 cells. To be noted: read-out: IC50 ± SEM PPC-1; Table 12; 96 h.
From the text: as §1

For another data set, the system named is PC-3/TxR xenografts. The class given is in vivo. The following applies: PC-3/TxR xenograft; IV 10 mpk, day 1 and 9; end point day 19.
The test system of another data set is HUVEC monolayers. The experiment in a line: Endothelial monolayer permeability assay (FITC-dextran, transwell). To be noted: 1, 2, 4 h.
Data set [2] deals with microtubules in WM-164 melanoma cells. The experiment in a line: Microtubule imaging (immunofluorescence), WM-164. The format is cell-based, human. The following applies: 18 h.
A further data set has as its system A375 melanoma xenografts. The experiment in a line: In vivo efficacy, A375 melanoma xenograft in nude mice (SMART compounds). Set-up: species or system mouse. To be noted: Melanoma (A375) xenograft, 20 mg/kg i.p.
A short description of data set [3]: Metabolic stability in human liver microsomes. The following applies: Table 20. A general note: Liver microsomes are a subcellular fraction often used to study metabolism.
[4] abbreviates: read-out: IC50 ± SEM PC-3, Table 12.
Where [5] appears, read: average of all seven cell lines, read-out: average IC50.

Where two headings read alike, the source gives them in different places.

For the compound `COc1cc(C(=O)[C@H]2COC(c3ccccc3)=N2)cc(OC)c1OC` [35a, (2R)-(2-Phenyl-4,5-dihydro-oxazol-4-yl)-(3,4,5trimethoxy-phenyl)-methasone], the “antiproliferative activity (in words)” value in data set [1] is given as “hundreds of nanomolar range”.

The term IC50 denotes the concentration needed to halve the response being measured. For `O=C(c1cccc(F)c1)c1c[nH]c(-c2ccccc2)n1` [12ag, (3-fluorophenyl)(2-phenyl-1H-imidazol-4-yl)methanone], the IC50 in the data set on PC-3 cells (read-out: IC50 PC-3, Table 11) is > 10 µM.

On to `COc1cc(-c2nc(C(=O)c3ccc(F)cc3)c[nH]2)cc(OC)c1OC` [12eb, (4-fluorophenyl)(2-(3,4,5-trimethoxyphenyl)-1H-imidazol-4-yl)methanone], for which the IC50 in the data set with PC-3 cells (setting [4]) was > 10 µM; in the data set on LNCaP cells (Table 12, 96 h), > 10 µM; in the data set with DU 145 cells it was > 10 µM; in the data set with PPC-1 cells it was > 10 µM; in data set [1] (setting [5]), > 10 µM.

On to `O=S(=O)(c1ccccc1)n1ccnc1-c1ccccc1` [10a, 2-phenyl-1-(phenylsulfonyl)-1H-imidazole], for which the IC50 in the data set on PC-3 cells (read-out: IC50 PC-3, Table 11) is > 10 µM.

As for `O=S(=O)(c1ccccc1)n1ccnc1-c1ccc(OCc2ccccc2)cc1` [10j, 2-(4-(benzyloxy)phenyl)-1-(phenylsulfonyl)-1H-imidazole], the IC50 with PC-3 cells (read-out: IC50 PC-3, Table 11) was > 10 µM.

Consider `COc1cc(/C=C\c2csc(-c3ccccc3)n2)cc(OC)c1OC` [3a, (Z)-2-Phenyl-4-(3,4,5-trimethoxystyryl)thiazole], for which the “antiproliferative activity (in words)” value in data set [1] is “lost activity”.

As for `COc1cc(C(=O)n2ccnc2-c2ccccc2)cc(OC)c1OC` [12aaa, (2-phenyl-1H-imidazol-1-yl)(3,4,5-trimethoxyphenyl)methanone], in the data set with PC-3 cells (read-out: IC50 PC-3, Table 11), the IC50 was > 10 µM.

On to `COc1cc(C(O)c2csc(-c3ccccc3)n2)cc(OC)c1OC` (centres unmarked) [2b, (2-Phenylthiazol-4-yl)(3,4,5-trimethoxyphenyl)methanol], for which the “antiproliferative activity (in words)” value in [1] was “inactive”.

Turning to `COc1cc(C(=O)c2csc(-c3ccc(CN(C)C)cc3)n2)cc(OC)c1OC.Cl` [2u, (2-(4-((Dimethylamino)methyl)phenyl)thiazol-4-yl)(3,4,5-trimethoxyphenyl)methanone hydrochloride], the “antiproliferative activity (in words)” value in data set [1] was “abrogated activity”.

As to `CC(=O)O[C@@]12CO[C@@H]1C[C@H](O)[C@@]1(C)C(=O)[C@H](O)C3=C(C)[C@@H](OC(=O)[C@H](O)[C@@H](NC(=O)OC(C)(C)C)c4ccccc4)C[C@@](O)([C@@H](OC(=O)c4ccccc4)[C@H]21)C3(C)C` [Docetaxel, reference compound], the “Tumor size Start” value in the data set on PC-3/TxR xenografts came out at 143 ± 20 mm^3.

In the case of `COc1cccc2c1C(=O)c1c(O)c3c(c(O)c1C2=O)C[C@@](O)(C(=O)CO)C[C@@H]3O[C@H]1C[C@H](N)[C@H](O)[C@H](C)O1` [Doxorubicin], the “permeability of endothelial cell monolayer” value in the data set with HUVEC monolayers was “did not induce any change”.

Consider `COc1cc(C(=O)c2coc(-c3ccccc3)n2)cc(OC)c1OC` [36a, (2-Phenyl-oxazol-4-yl)-(3,4,5-trimethoxy-phenyl)-methanone], for which, in data set [1], the “antiproliferative activity (in words)” value is “hundreds of nanomolar range”.

Consider `O=C(c1ccc(F)cc1)c1c[nH]c(-c2ccccc2C(F)(F)F)n1` [12ib, (4-fluorophenyl)(2-(2-(trifluoromethyl)phenyl)-1H-imidazol-4-yl)methanone], for which, in data set [1] (setting [5]), the half-maximal inhibitory concentration (IC50) is > 10 µM.

For `COc1ccc(S(=O)(=O)Nc2cccnc2Nc2ccc(O)cc2)cc1` [ABT-751, reference compound], the effect on microtubules entry in [2] is reported as “microtubule fragmentation”.

Take `COc1cc(C(=O)c2csc(-c3ccccc3)n2)cc(OC)c1OC` [SMART-H]: in the data set on A375 melanoma xenografts, the T-C was 10 days. The “Total log cell kill” value in the data set with A375 melanoma xenografts (doubling time 4.6 d) was determined as 0.7.

As for `O=C(c1cc(O)c(O)c(O)c1)c1c[nH]c(-c2cc(O)c(O)c(O)c2)n1` [13ea, (3,4,5-trihydroxyphenyl)(2-(3,4,5-trihydroxyphenyl)-1H-imidazol-4-yl)methanone], the IC50 with PC-3 cells (setting [4]) was > 10 µM; with LNCaP cells (Table 12, 96 h), > 10 µM; in the data set on DU 145 cells, > 10 µM; in the data set with PPC-1 cells, > 10 µM.

For the compound `COc1cc(C(=O)c2cccc(-c3ccccc3)c2)cc(OC)c1OC` [1a, Biphenyl-3-yl(3,4,5-trimethoxyphenyl)methanone], the “antiproliferative activity (in words)” value in data set [1] is listed as “hundreds of nanomolar range”.

`COc1ccc(C(=O)n2ccnc2-c2ccccc2)cc1` [12aba, (4-methoxyphenyl)(2-phenyl-1H-imidazol-1-yl)methanone]: the IC50 in the data set with PC-3 cells (read-out: IC50 PC-3, Table 11) was > 10 µM.

As for `COc1cc(/C(=N/O)c2csc(-c3ccccc3)n2)cc(OC)c1OC` [2e-cis, (Z)-(2-Phenylthiazol-4-yl)(3,4,5-trimethoxyphenyl)methanone oxime], in data set [3], the “Half life in Human liver microsome” value is given as 35 min. Further, the “fold more activity than anti-isomer 2e-trans” value in data set [1] came out at 10 fold.

In the case of `COc1cc(C(=O)c2csc(-c3cc(F)c(F)c(F)c3)n2)cc(OC)c1OC` [2p], in the data set with LNCaP cells (Table 6), the IC50 is > 10 µM.

As for `O=C(c1cc(O)c(O)c(O)c1)c1c[nH]c(-c2ccc(Cl)cc2)n1` [13fa, (2-(4-chlorophenyl)-1H-imidazol-4-yl)(3,4,5-trihydroxyphenyl)methanone], in the data set on PPC-1 cells, the IC50 is > 10 µM.

Consider `O=[N+]([O-])c1ccc(-c2nccn2S(=O)(=O)c2ccccc2)cc1` [10x, 2-(4-nitrophenyl)-1-(phenylsulfonyl)-1H-imidazole], for which the IC50 in the data set with PC-3 cells (read-out: IC50 PC-3, Table 11) is > 10 µM.

Turning to `COc1cc(C(=O)c2c[nH]c(-c3cc(OC)c(OC)c(OC)c3)n2)cc(OC)c1OC` [12ea, (3,4,5-trimethoxyphenyl)(2-(3,4,5-trimethoxyphenyl)-1H-imidazol-4-yl)methanone], the IC50 was > 10 µM with PC-3 cells (setting [4]); > 10 µM with LNCaP cells (Table 12, 96 h); > 10 µM in the data set on DU 145 cells; > 10 µM with PPC-1 cells; > 10 µM in data set [1] (setting [5]).

As for `COc1cc(C(=O)c2c[nH]c(-c3ccc(Br)cc3)n2)cc(OC)c1OC` [12la, (2-(4-bromophenyl)-1H-imidazol-4-yl)(3,4,5-trimethoxyphenyl)methanone], the IC50 in data set [1] (Homo sapiens, text on Tables 1, 2, 13, read-out: IC50 (range over cell lines)) was 1 to 50 µM.

As for `COc1ccc(C(=O)c2c[nH]c(-c3ccccc3)n2)cc1OC` [12ae, (3,4-dimethoxyphenyl)(2-phenyl-1H-imidazol-4-yl)methanone], the IC50 with PC-3 cells (read-out: IC50 PC-3, Table 11) was > 10 µM.

With `O=C(c1ccc(F)cc1)c1c[nH]c(-c2ccc(OCc3ccccc3)cc2)n1` [12jb, (2-(4-(benzyloxy)phenyl)-1H-imidazol-4-yl)(4-fluorophenyl)methanone], the “increase in activity compared with 12kb” value in [1] was found to be 440 fold.

Turning to `CNCc1ccc(-c2nc(C(=O)c3cc(OC)c(OC)c(OC)c3)cs2)cc1.Cl` [2s, (2-(4-((Methylamino)methyl)phenyl)thiazol-4-yl)(3,4,5-trimethoxyphenyl)methanone hydrochloride], the “antiproliferative activity (in words)” value in data set [1] was “abrogated activity”.

In the case of `COc1ccc(/C=C\c2cc(OC)c(OC)c(OC)c2)cc1O` [CA4, Combretastatin A-4], in the data set with HUVEC monolayers, the “permeability of endothelial cell monolayer” value is given as “increased permeability”.

Values taken from patent US8822513B2, “Compounds for treatment of cancer” (GTX, Inc., priority 2010, dated 2014).
